# Measured values published in the NIST ThermoML archive (doi:10.1021/je101014q).
# ± gives the expanded uncertainty stated by the source.
# Assay: xn = mol fraction of the nth substance listed
# Conditions: 101 kPa, Liquid, Cone and plate viscometry
smiles,measurement,setting,value
"CC(=O)[O-].CCCC[N+](CC)(CC)CC [N,N,N-triethylbutanaminium acetate] + O",viscosity,"298.2 K, x1 = 0.17",13 ± 1 mPa·s
same,viscosity,"298.2 K, x1 = 0.33",66 ± 2 mPa·s
same,viscosity,"298.2 K, x1 = 0.5",79 ± 3 mPa·s
same,viscosity,"298.2 K, x1 = 1",439 ± 23 mPa·s
same,viscosity,"313.2 K, x1 = 0.17",10.9 ± 0.4 mPa·s
same,viscosity,"313.2 K, x1 = 0.33",39.4 ± 1.3 mPa·s
same,viscosity,"313.2 K, x1 = 0.5",55.5 ± 1.8 mPa·s
same,viscosity,"313.2 K, x1 = 1",306.7 ± 14 mPa·s
same,viscosity,"333.2 K, x1 = 0.17",5.15 ± 0.18 mPa·s
same,viscosity,"333.2 K, x1 = 0.33",12.6 ± 0.5 mPa·s
same,viscosity,"333.2 K, x1 = 0.5",15.6 ± 0.6 mPa·s
same,viscosity,"333.2 K, x1 = 1",47.3 ± 3 mPa·s
